Reference: BindingDB's records for doi:10.1021/acs.jmedchem.6b00275 (University of Washington, 2016)

Assays:
Cytochrome P450 2C9 = Cytochrome P450 2C9 (Homo sapiens, UniProt P11712); assay: Inhibition of CYP2C9 in human liver microsomes using isoform-specific probe substrates in presence of NADPH-generating system by LC-MS analysis
[1] = target: Dihydroorotate dehydrogenase (quinone), mitochondrial (Rattus norvegicus, UniProt Q63707); assay: Inhibition of N-terminal His6-tagged rat DHODH expressed in Escherichia coli BL21 expressed in Escherichia coli BL21 using L-DHO as substrate and CoQ as co-substrate by DCIP dye based spectrophotometric assay
Dihydroorotate dehydrogenase (quinone), mitochondrial (Rattus norvegicus, UniProt Q63707), sequence (Q63707 whole entry, canonical isoform): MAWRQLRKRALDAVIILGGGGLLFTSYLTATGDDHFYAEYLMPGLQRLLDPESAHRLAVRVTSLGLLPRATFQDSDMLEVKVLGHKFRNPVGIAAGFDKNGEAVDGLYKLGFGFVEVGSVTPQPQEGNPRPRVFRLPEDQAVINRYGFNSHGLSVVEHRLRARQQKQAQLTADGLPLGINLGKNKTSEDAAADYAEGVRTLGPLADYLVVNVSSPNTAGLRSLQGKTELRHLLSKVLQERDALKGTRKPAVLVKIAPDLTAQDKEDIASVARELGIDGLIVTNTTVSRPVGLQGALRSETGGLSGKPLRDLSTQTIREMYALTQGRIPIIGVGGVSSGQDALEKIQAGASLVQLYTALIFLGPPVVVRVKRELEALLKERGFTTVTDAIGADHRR

Cytochrome P450 2C8 = target: T1, Cytochrome P450 2C8 (Homo sapiens, UniProt P10632); assay: Inhibition of CYP2C8 in human liver microsomes using isoform-specific probe substrates in presence of NADPH-generating system by LC-MS analysis
T1 sequence (P10632 whole entry): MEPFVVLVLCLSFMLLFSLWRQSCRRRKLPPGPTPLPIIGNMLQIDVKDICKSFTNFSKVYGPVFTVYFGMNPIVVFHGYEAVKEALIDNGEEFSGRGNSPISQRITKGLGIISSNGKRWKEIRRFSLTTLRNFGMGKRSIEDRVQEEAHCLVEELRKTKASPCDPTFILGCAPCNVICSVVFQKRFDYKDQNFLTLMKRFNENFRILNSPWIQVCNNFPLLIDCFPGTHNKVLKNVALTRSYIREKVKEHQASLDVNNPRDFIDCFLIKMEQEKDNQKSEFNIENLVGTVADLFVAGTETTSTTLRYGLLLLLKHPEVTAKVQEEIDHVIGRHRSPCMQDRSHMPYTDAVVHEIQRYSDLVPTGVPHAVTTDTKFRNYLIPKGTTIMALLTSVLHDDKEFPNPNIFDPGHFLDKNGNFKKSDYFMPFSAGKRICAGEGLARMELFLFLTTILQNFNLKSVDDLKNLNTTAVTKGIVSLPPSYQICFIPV

Cytochrome P450 2B6 = target: T2, Cytochrome P450 2B6 (Homo sapiens, UniProt P20813); assay: Inhibition of CYP2B6 in human liver microsomes using isoform-specific probe substrates in presence of NADPH-generating system by LC-MS analysis
T2 sequence (P20813 whole entry): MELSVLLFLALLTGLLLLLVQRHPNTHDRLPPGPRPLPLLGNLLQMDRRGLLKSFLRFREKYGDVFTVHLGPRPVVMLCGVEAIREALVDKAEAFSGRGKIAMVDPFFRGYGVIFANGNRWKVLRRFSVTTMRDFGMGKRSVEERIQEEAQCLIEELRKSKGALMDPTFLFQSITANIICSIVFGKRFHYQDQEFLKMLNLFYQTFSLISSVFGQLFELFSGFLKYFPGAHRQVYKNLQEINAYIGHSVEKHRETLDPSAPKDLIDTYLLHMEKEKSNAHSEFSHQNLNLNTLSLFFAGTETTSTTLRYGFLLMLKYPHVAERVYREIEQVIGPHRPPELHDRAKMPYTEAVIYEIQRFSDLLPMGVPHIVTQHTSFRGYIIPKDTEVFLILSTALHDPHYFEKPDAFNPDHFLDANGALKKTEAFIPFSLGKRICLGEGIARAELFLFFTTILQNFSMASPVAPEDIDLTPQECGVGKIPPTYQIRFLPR

Cytochrome P450 3A4 = Cytochrome P450 3A4 (Homo sapiens, UniProt P08684); assay: Inhibition of CYP3A4 in human liver microsomes using isoform-specific probe substrates in presence of NADPH-generating system by LC-MS analysis
Cytochrome P450 3A4, sequence (P08684 whole entry, canonical isoform): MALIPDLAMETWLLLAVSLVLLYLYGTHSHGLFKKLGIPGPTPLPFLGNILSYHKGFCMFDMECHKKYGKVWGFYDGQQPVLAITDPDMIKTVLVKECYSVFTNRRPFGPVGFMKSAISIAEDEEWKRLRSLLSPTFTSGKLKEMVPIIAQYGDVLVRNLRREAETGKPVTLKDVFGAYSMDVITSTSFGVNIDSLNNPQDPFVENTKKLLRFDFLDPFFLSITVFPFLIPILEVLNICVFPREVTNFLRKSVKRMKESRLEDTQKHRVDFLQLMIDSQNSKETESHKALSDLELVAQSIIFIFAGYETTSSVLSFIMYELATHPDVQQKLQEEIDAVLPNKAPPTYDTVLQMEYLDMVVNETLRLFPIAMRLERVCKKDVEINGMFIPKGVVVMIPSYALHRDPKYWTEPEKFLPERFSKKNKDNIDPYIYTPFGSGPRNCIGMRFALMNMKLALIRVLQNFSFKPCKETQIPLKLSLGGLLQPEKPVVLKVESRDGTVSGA

Cytochrome P450 1A2 = target: T3, Cytochrome P450 1A2 (Homo sapiens, UniProt P05177); assay: Inhibition of CYP1A2 in human liver microsomes using isoform-specific probe substrate in presence of NADPH-generating system by LC-MS analysis
T3 sequence (P05177 whole entry): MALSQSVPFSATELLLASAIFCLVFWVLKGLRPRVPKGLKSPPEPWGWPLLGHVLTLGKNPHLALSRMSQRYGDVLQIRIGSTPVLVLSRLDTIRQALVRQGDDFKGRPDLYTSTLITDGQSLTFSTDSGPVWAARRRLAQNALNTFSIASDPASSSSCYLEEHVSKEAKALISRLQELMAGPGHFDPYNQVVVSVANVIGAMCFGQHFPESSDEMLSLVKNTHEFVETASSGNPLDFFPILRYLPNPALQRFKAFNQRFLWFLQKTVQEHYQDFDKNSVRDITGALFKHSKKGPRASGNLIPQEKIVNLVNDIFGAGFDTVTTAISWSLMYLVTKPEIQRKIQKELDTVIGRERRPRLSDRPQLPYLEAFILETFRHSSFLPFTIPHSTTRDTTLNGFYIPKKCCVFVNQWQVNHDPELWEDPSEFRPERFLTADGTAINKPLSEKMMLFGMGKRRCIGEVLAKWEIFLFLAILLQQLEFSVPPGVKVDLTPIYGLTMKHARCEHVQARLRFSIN

Cytochrome P450 2D6 = Cytochrome P450 2D6 (Homo sapiens, UniProt P10635); assay: Inhibition of CYP2D6 in human liver microsomes using isoform-specific probe substrates in presence of NADPH-generating system by LC-MS analysis
Cytochrome P450 2D6, sequence (P10635 whole entry, canonical isoform): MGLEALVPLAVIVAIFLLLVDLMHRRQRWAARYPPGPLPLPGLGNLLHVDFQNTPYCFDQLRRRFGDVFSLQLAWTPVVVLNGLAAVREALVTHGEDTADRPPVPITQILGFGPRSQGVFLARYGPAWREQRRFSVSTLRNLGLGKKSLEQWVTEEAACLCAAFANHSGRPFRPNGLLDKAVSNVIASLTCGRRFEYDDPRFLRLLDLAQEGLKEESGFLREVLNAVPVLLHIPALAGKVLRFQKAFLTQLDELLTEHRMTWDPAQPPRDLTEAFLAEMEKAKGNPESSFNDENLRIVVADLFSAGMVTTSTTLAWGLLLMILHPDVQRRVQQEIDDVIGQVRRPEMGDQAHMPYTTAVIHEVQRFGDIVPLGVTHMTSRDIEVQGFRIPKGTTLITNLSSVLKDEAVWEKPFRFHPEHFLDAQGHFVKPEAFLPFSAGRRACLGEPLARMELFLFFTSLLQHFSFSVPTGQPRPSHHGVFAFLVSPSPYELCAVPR

[2] = target: Dihydroorotate dehydrogenase (quinone), mitochondrial (Homo sapiens, UniProt Q02127); assay: Inhibition of N-terminal His6-tagged human DHODH expressed in Escherichia coli BL21 using L-DHO as substrate and CoQ as co-substrate by DCIP dye based spectrophotometric assay
Dihydroorotate dehydrogenase (quinone), mitochondrial (Homo sapiens, UniProt Q02127), sequence (Q02127 whole entry, canonical isoform): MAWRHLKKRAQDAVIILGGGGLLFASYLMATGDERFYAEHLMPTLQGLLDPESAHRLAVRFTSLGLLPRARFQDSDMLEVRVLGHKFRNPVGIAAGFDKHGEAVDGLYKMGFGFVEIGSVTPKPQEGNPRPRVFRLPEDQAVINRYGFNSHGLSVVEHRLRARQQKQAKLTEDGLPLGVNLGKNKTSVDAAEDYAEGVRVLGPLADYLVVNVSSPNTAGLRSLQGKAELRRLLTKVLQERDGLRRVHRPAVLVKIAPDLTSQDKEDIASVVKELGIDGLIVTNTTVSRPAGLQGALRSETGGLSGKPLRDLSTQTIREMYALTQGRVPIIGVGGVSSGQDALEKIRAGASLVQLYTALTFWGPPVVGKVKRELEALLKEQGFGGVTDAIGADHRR

Cytochrome P450 2C19 = Cytochrome P450 2C19 (Homo sapiens, UniProt P33261); assay: Inhibition of CYP2C19 in human liver microsomes using isoform-specific probe substrates in presence of NADPH-generating system by LC-MS analysis
Cytochrome P450 2C19, sequence (P33261 whole entry, canonical isoform): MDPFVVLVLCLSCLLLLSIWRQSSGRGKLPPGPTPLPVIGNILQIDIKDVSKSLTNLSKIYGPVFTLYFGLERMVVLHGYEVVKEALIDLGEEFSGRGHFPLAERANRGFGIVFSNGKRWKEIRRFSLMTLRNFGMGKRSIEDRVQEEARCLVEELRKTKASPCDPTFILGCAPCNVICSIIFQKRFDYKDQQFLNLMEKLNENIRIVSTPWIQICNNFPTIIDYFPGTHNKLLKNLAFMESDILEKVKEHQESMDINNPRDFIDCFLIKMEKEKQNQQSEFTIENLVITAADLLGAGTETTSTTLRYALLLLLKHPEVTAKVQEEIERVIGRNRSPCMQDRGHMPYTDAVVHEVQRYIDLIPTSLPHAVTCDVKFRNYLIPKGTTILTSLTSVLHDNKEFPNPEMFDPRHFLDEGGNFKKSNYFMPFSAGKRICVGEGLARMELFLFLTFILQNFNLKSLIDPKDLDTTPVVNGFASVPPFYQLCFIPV

Cytochrome P450 2C9, sequence (P11712 whole entry, canonical isoform): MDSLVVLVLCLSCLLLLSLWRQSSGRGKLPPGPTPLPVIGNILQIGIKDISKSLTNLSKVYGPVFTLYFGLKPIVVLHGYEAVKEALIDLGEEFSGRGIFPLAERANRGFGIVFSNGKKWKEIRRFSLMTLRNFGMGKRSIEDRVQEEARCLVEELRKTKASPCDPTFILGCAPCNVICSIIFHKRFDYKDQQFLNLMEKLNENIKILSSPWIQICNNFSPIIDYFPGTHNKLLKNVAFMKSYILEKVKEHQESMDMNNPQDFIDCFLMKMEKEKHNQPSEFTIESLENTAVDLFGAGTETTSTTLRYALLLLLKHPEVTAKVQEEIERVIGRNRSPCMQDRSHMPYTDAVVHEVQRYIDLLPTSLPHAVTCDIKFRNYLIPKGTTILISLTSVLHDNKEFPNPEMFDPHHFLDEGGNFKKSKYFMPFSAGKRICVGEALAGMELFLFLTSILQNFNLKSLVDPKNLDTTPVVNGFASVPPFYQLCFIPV

Row | Structure (SMILES) | IC50 (Cytochrome P450 2C9) [µM] | IC50 [1] [µM] | IC50 (Cytochrome P450 2C8) [µM] | IC50 (Cytochrome P450 2B6) [µM] | IC50 (Cytochrome P450 3A4) [µM] | IC50 (Cytochrome P450 1A2) [µM] | IC50 (Cytochrome P450 2D6) [µM] | IC50 [2] [µM] | IC50 (Cytochrome P450 2C19) [µM]
1 | Cc1cc(NC2CCc3cc(Cl)ccc3C2)n2nc(C(C)(F)F)nc2n1 (stereo unspecified) | 10.2 | > 100 | > 20 | 18.4 | > 20 | > 20 | 20 | > 100 | –
2 | Cc1cc(NC2CCc3cc(Br)ccc3C2)n2nc(C(C)(F)F)nc2n1 (stereo unspecified) | 8.7 | > 100 | 18.7 | 17.7 | – | > 20 | > 20 | > 100 | > 20
3 | Cc1cc(N[C@H]2CCc3ccc(Br)cc3C2)n2nc(C(C)(F)F)nc2n1 | 3.1 | > 100 | 16.9 | > 20 | > 20 | > 20 | 3.9 | – | > 20
4 | COc1ccc2c(c1)CC(Nc1cc(C)nc3nc(C(C)(F)F)nn13)CC2 (stereo unspecified) | – | – | – | – | – | – | – | > 100 | –
5 | Cc1cc(NC2CCc3ccc(Cl)cc3C2)n2nc(C(F)(F)F)nc2n1 (stereo unspecified) | – | – | – | – | – | – | – | > 50 | –
